The subject of one assay is Hep G2 cells. The assay is described as follows: Quantifying of total ceramide (HPLC, NDA derivatisation). The settings on record: for Ceramide content with respect to control: Hep G2, 50 µM and higher concentrations. The format is cell-based, human. The method, then: (§1) The cell line was grown in RPMI-1640 medium supplemented with L-glutamine 2 mM, HEPESNa 25 mM, penicillin 100 U/mL, streptomycin 100 μg/mL and 10% […] (FBS) at 37 °C in a humidified atmosphere containing 5% CO2. Hep G2 cells were seeded at 1 × 10^6 cells/mL and sub cultured every 2–3 days after 60–80% confluence was reached. To prepare the lysates cells attached to the culture plate were scraped off with a cell scraper and collected in a 1.5 mL tube by centrifugation. The cell pellets were rinsed with PBS, suspended in sterile water, and then lysed by sonication. For each experiment, the cells were treated separately with increasing concentrations of silibinin derivatives (0, 25, 50, 75, 100, 125, 150, 175 and 200 μM) and incubated for 48 h.
Sample (3 µL of cell extract cell lysate) was mixed with 3 µL of an ACDase assay solution (0.2 M citrate–phosphate buffer, pH 4.5, 0.3 M NaCl, 0.2% Igepal CA-630, 10% FBS, 50 ng/µL ACDase) and incubated at 37 °C for 1 h. The reaction was stopped by adding ethanol (1:5) and centrifuged for 5 min at 13,000 × g. 10 µL of the supernatant was transferred into 20 µL of 25 mM sodium borate buffer (pH 9.0) containing 1.25 mM sodium cyanide and 1.25 mM NDA. The reaction mixture was incubated at 50 °C for 10min, diluted with ethanol (1:4), and centrifuged for 5 min at 13,000 × g. 5 µL of the supernatant was applied to high-performance liquid chromatography (HPLC) for analysis. The HPLC system consisted of Waters 600 S controller, 616 pump, 474 scanning fluorescence detector, 717 auto sampler (Waters, Milford, MA) and BetaBasic-C18 (20 cm × 4.6 mm) column with 3 µM particle size (Thermo Electron, Bellefonte, PA) which was not temperature regulated. All chromatographic procedures were carried out at room temperature using a mobile phase of 90% methanol at a flow rate of 1.0 mL/min. The fluorescent derivatives were monitored at the excitation wavelength of 252 nm and the emission wavelength of 483 nm ([35]). […]

Another assay concerns the target T1, Acid ceramidase (ACDase) (Homo sapiens, UniProt Q13510).
T1 construct: endogenous in cells; host or cells: Hep G2
T1 sequence (Q13510 22-395): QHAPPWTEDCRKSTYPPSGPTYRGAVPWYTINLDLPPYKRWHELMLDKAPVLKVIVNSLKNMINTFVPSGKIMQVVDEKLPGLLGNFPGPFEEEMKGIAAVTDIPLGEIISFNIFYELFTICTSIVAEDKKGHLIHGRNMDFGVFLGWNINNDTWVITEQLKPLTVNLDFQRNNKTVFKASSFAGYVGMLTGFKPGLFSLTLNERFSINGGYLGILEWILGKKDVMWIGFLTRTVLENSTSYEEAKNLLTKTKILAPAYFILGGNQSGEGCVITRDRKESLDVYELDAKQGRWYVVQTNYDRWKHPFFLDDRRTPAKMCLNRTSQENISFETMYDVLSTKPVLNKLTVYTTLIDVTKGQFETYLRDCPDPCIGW
The assay is described as follows: ACDase activity assay (fluorogenic). The settings on record: for ACDase activity in cell extract compared to control: Hep G2, 125 µM and higher concentrations. The format is cell-based. The protocol:
as §1
ACDase activity was measured in intact cells and in cell lysates by fluorogenic assays. For intact cell assays, cells (10,000/well) were seeded into 96-well plates in 10% FBS medium. After 24 h, medium was removed and replaced with 5% FBS medium containing indicated concentrations of silibinin derivatives (controls contained ethanol vehicle). Plates were placed in a tissue culture incubator at 37 °C, 5% CO2 for 24 h and cell viability assays were conducted in parallel. Fluorogenic substrate (ethanol vehicle) was then added to a final concentration of 16μM (125 μL final well volume), and the plates were incubated for 3 h at 37 °C, 5% CO2. To complete the assays, 50 μL methanol and 100 μL NaIO4 (2.5 mg/mL) in 0.1 M glycine buffer with a pH of 10.6 were added and the plates were incubated in a dark place for 2 h at 37 °C. Fluorescence was measured in the UV range (365 nm excitation/410–460 nm emission) using a GloMax® multi-detection system (Promega, Madison, WI).
To measure ACDase activity in cell lysates, cells were harvested using trypsin/EDTA, washed three times in ice-cold PBS and re-suspended at a concentration of 1 × 10^6 cells/mL in 0.2 M sucrose. After sonication on ice (microtip, 5–10 s), lysates were centrifuged at 20,000 × g at 4 °C for 15 min to remove debris. Protein in the supernatant was measured using the BCA assay (Pierce Products, Thermo Scientific, Rockford, IL) and bovine serum albumin standard curves. Supernatant protein (60 μg) was added to 96-well plates containing the indicated compounds and sodium acetate–acetic acid buffer, pH 4.5 (25 mM), and incubated for 1 h at 37 °C, in final well volume of 100 μL. Fluorescent substrate was added to a final concentration of 40 μM (125 μL total well volume), and the assay was incubated in the dark at 37 °C for 3 h. Fluorescence was then measured as described above ([23]).

SMILES strings stand for the structures.

As for `COc1cc([C@@H]2Oc3cc([C@H]4Oc5cc(O)cc(O)c5C(=O)[C@@H]4OC(=O)c4cc(O)c(O)c(O)c4)ccc3O[C@H]2CO)ccc1O` [SGB, 3-O-galloyl silybin B], the “Ceramide content with respect to control” value with Hep G2 cells is given as “significant rises”. The “Maximum ceramide level compared to control” value in the assay on Hep G2 cells (Hep G2, 200 µM (the highest dose)) was “approximately 3.7 fold”. On Acid ceramidase (ACDase), the “ACDase activity in cell extract compared to control” value is “markedly inhibited”.

`COc1cc([C@@H]2Oc3cc([C@H]4Oc5cc(O)cc(O)c5C(=O)[C@@H]4O)ccc3O[C@H]2CO)ccc1O` [SB, silybin B]: the “ACDase activity in cell extract compared to control” value at Acid ceramidase (ACDase) was “markedly inhibited”.

Turning to `COc1cc([C@H]2Oc3cc([C@H]4Oc5cc(O)cc(O)c5C(=O)[C@@H]4OC(=O)c4cc(O)c(O)c(O)c4)ccc3O[C@@H]2CO)ccc1O` [SGA, 3-O-galloyl silybin A], the “Ceramide content with respect to control” value with Hep G2 cells was “significant rises”. The “ACDase activity in cell extract compared to control” value at Acid ceramidase (ACDase) is listed as “markedly inhibited”.

A word on the inhibition: it is the change of the read-out against control, counted positive when it falls. A low value points to a response near the control. For the molecule `COc1cc([C@H]2Oc3cc([C@H]4Oc5cc(O)cc(O)c5C(=O)[C@@H]4O)ccc3O[C@@H]2CO)ccc1O` [SA, silybin A], at Acid ceramidase (ACDase) (Hep G2, throughout the concentration range (0-200 µM)), the “ACDase activity, effect of cell exposure” value is reported as “could not alter ACDase activity”. The molecule further returned an inhibition at 200 µM against Acid ceramidase (ACDase) (HepG2, Hep G2 cell extract, 200 µM) of 18%.

Values taken from paper PMC5149029, “New Aspects of Silibinin Stereoisomers and their 3-O-galloyl Derivatives on Cytotoxicity and Ceramide Metabolism in Hep G2 hepatocarcinoma Cell Line” (Iranian Journal of Pharmaceutical Research : IJPR, 2016).
